Results as given in patent US20070293451A1, “Regulation ao ApoB by Hsp110 proteins and related compositions and methods” (University of Pittsburgh, priority 2006, published 2007).
Peptide text beside a SMILES is read from it. * marks the point of attachment. 6FAM = O=C1OC2(c3ccc(O)cc3Oc3cc(O)ccc32)c2cc(C(=O)*)ccc21; Ahx = NCCCCCC(=O)O

Key:
[1] = molecular target: Sse1p peptide binding domain (Saccharomyces cerevisiae, UniProt P32589); details: fluorescence anisotropy
Method: (SEQ ID NO: 1) (which derives from firefly luciferase), assessed by fluorescence anisotropy.
(§1) Binding was assessed by fluorescence anisotropy.

full-length Sse1p = molecular target: T1, full-length Sse1p (Saccharomyces cerevisiae, UniProt P32589); test: Fluorescence anisotropy binding of labeled luciferase-derived peptide to full-length Sse1p
T1 sequence (P32589 1-693): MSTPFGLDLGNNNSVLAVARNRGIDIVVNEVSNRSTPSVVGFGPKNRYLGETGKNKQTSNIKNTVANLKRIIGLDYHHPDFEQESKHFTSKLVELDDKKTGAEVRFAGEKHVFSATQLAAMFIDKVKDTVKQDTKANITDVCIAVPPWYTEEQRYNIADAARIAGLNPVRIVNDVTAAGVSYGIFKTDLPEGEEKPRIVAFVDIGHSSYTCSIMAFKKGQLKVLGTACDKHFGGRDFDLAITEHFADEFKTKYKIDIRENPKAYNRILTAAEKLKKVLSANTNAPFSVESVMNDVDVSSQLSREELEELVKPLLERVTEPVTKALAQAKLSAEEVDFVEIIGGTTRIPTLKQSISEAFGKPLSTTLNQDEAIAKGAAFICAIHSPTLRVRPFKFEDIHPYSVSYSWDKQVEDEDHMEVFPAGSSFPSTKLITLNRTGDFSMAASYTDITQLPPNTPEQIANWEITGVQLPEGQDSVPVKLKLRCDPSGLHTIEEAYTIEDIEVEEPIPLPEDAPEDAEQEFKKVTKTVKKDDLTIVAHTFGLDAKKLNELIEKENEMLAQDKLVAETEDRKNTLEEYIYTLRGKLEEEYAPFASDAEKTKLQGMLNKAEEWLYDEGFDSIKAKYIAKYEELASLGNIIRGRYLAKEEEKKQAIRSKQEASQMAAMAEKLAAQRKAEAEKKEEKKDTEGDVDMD
Method: as §1

ApoB100 = ApoB100 biogenesis and secretion from McArdle cells (pulse-chase) on Hsp110 over-expression; type: cell-based, rat; details: MTP inhibitor BMS-200150 present, without Hsp110 over-expression, data not shown
Method: FIGS. 9A and 9B show the effect of Hsp110 over-expression on ApoB100 secretion from McArdle cells, a standard rat hepatoma cell model of lipoprotein metabolism. ApoB100 (FIG. 9A) and albumin (FIG. 9B) biogenesis and secretion were assessed by published pulse-chase analytical methods.
An Hsp110 expression vector was obtained from Dr. John Subjeck (Roswell Park Cancer Center, N.Y.), and either that vector or a vector control was introduced into McArdle cells—a rat hepatoma cell line that also expresses full-length ApoB (that is, ApoB100). […] As a control, there was no effect on albumin secretion from these cells, regardless of whether Hsp110 was over-expressed (FIG. 9B). Furthermore, the over-expression of Hsp110 in the McArdle cells in the presence of a microsomal triglyceride transfer protein (MTP) inhibitor (BMS-200150; Jamil, H., D. A. Gordon, D. C. Eustice, C. M. Brooks, J. K. Dickson, Jr., Y. Chen, B. Ricci, C.-H. Chu, T. W. Harrity, C. P. Ciosek, Jr., S. A. Biller, R. E. Gregg, and J. R. Wetterau. 1996. An inhibitor of the microsomal triglyceride transfer protein inhibits apoB secretion from HepG2 cells. Proc Natl Acad Sci USA. 93, 11991-95) increased the percent of apoB recovered in the lysate and medium fractions from 14% to 28% (data not shown).

CC[C@H](C)[C@H](NC(=O)[C@H](CC(C)C)NC(=O)CCCCCNC(=O)c1ccc2c(c1)C1(OC2=O)c2ccc(O)cc2Oc2cc(O)ccc21)C(=O)N[C@@H](CS)C(=O)NCC(=O)N[C@@H](Cc1ccccc1)C(=O)N[C@@H](CCCNC(=N)N)C(=O)N[C@H](C(=O)N[C@H](C(=O)N[C@@H](CC(C)C)C(=O)N[C@@H](CCSC)C(=O)N[C@@H](Cc1ccc(O)cc1)C(=O)N[C@@H](CCCNC(=N)N)C(=O)N[C@@H](Cc1ccccc1)C(=O)O)C(C)C)C(C)C [6-carboxyfluorescein-aminohexanoic acid-linked-LICGFRVVLMYRF] ({6FAM-Ahx}-LICGFRVVLMYRF-OH)
lower affinity for Sse1p peptide binding domain alone compared with Sse1p [1]: ~100 fold
Kd (full-length Sse1p): 2 to 3 nM

O=C1c2ccccc2CN1C1CCN(CCC(c2ccccc2)c2ccccc2)CC1 [BMS-200150, reference compound]
percent of apoB recovered in the lysate and medium fractions (ApoB100): 14%

LICGFRVVLMYRF [Unlabeled peptide, unlabeled form of the firefly luciferase-derived peptide]
competition with labeled peptide for binding (full-length Sse1p; data not shown): competes for binding
